Reference: patent US20180244611A1, “Modulators of the Cystic Fibrosis Transmembrane Conductance Regulator Protein and Methods of Use” (AbbVie S.à.r.l., priority 2017, published 2018)

Key:
[1] = target: T1, F508delCFTR (Homo sapiens, UniProt P13569, DEL508-508); test: Cell Surface Expression-Horse Radish Peroxidase (CSE-HRP) assay, test compound with co-corrector; type: cell-based; conditions: for Maximum % activity (with co-corrector): maximum at any tested concentration;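 on Maximum % activity (with co-corrector): percent of 2 µM positive control corrector over DMSO; co-corrector is that same compound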
T1 construct: expressed in transfected cells; host or cells: CFBE41o- human lung-derived epithelial cells (CFBE41o-F508delCFTR-HRP), doxycycline-inducible
Method in brief: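 Surface-expression read-out: luminol luminescence from an HRP tag in the fourth exofacial loop of F508delCFTR, in doxycycline-induced (0.5 μg/mL, 72 h) CFBE41o- cells. Compound plus 2 μM co-corrector added for 18-24 h at 33° C., 8-point 3-fold series up to 20 μM. EC50 from a sigmoidal fit with variable Hill slope, normalised to positive control, triplicate plates.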

[2] = target: T1, F508delCFTR; test: Cell Surface Expression-Horse Radish Peroxidase (CSE-HRP) assay, test compound without co-corrector; type: cell-based; conditions: for EC50: test compound without co-corrector; for Emax: maximum at any tested concentration, without co-corrector;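 on Emax: percent of on-plate 2 µM positive control corrector response over DMSO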
Method in brief: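 Compound without co-corrector was tested at eight 3-fold concentrations, top 20 μM, for 18-24 h at 33° C on doxycycline-induced (0.5 μg/mL, 72 h) CFBE41o- F508delCFTR-HRP cells. After DPBS washes, luminol luminescence gave % activity relative to on-plate positive control minus DMSO; EC50 came from triplicate-plate sigmoidal fitting.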

[3] = CSE-HRP assay, test compound with 2 μM co-corrector
[4] = normalized to on-plate positive control, with 2 μM co-corrector
[5] = normalized to on-plate positive control
[6] = normalized to positive control, with 2 μM co-corrector

T1 sequence (P13569 with tags, fused parts or gaps DEL508-508): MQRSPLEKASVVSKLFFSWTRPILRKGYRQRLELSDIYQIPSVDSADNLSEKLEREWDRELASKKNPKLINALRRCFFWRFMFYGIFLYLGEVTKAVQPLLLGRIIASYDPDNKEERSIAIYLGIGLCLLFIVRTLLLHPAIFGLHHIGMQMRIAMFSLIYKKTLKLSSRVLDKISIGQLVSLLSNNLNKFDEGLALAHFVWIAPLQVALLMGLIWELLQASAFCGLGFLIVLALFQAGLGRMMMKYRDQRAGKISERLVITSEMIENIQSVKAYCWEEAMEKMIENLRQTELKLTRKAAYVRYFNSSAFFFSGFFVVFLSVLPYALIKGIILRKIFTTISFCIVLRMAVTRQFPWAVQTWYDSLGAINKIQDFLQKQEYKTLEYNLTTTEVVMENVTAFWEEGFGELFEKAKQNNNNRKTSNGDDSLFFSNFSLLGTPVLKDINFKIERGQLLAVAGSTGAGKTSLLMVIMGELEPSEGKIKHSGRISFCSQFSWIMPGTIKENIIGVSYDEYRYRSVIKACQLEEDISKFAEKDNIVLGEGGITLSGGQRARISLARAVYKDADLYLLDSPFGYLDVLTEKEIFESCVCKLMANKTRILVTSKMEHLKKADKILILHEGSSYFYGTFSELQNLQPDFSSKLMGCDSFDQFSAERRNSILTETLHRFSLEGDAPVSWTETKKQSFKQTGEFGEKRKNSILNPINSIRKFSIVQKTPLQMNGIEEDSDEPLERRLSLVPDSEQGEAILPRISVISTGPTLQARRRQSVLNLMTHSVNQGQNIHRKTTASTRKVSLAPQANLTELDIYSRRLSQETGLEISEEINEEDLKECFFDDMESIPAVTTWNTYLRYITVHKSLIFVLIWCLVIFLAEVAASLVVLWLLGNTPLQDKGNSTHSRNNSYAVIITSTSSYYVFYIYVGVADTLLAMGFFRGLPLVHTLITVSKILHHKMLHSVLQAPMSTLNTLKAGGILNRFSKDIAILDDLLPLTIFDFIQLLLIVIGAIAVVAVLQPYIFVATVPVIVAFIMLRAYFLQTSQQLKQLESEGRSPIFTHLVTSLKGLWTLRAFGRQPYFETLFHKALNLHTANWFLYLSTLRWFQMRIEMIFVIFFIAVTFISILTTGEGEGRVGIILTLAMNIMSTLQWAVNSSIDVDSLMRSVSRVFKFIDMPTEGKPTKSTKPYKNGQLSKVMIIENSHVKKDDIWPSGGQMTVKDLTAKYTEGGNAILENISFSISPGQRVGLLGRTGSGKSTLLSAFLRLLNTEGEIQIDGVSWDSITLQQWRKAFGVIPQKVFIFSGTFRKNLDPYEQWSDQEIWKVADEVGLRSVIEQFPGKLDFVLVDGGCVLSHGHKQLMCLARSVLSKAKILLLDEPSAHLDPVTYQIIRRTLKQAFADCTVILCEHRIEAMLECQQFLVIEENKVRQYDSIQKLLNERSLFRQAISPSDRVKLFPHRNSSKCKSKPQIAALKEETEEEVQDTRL

Structure (SMILES) | EC50 [1, 3] [µM] | Maximum % activity (with co-corrector) [1, 4] | EC50 ([2]; CSE-HRP assay) [µM] | Emax [2, 5] [%] | Maximum % activity (with co-corrector) [1, 6] | EC50 ([1]; with 2 μM co-corrector) [µM] | Emax ([2]; normalized to positive control) [%] | EC50 [2] [µM]
COc1ccc(-c2cccc(OC(F)(F)F)c2)c2c1CCCC2C(=O)NS(=O)(=O)c1cccc2ccccc12 (stereo not drawn) [III-148] | < 3 | +++ (≥350) | < 3 | ≥ 150 | – | – | – | –
COc1ccc(C2CCC2)c2c1[C@H](C(=O)NS(=O)(=O)c1cccc3nc(C)ccc13)CC2 [Example I-128, (1R)-4-cyclobutyl-7-methoxy-N-(2-methylquinoline-5-sulfonyl)-2,3-dihydro-1H-indene-1-carboxamide] | – | – | – | – | +++ (≥350) | < 3 | ≥ 150 | 3 to 10
COc1cccc2c1CCC2C(=O)NS(=O)(=O)c1c(C)nn(C)c1Cl (stereo not drawn) [III-44] | – | – | – | – | + (<150) | ≥ 10 | < 50 | ≥ 10
CCC1(C(=O)NS(=O)(=O)c2cnccc2N2CCN(C(C)C)CC2)CCc2c(Cl)cccc21 (stereo not drawn) [III-137] | ≥ 10 | + (<150) | ≥ 10 | < 50 | – | – | – | –
CCC1(C(=O)NS(=O)(=O)c2ccc(C)cc2)CCc2c(Cl)cccc21 (stereo not drawn) [III-139] | < 3 | ++ (≥150 and <350) | < 3 | < 50 | – | – | – | –
CCC1(C(=O)NS(=O)(=O)c2ccc(Cl)cc2Cl)CCc2c(Cl)cccc21 (stereo not drawn) [III-113] | < 3 | ++ (≥150 and <350) | ≥ 10 | < 50 | – | – | – | –
CC(C)Oc1ccc(Br)c2c1C(C(=O)NS(=O)(=O)c1cccc3ccccc13)CC2 (stereo not drawn) [Example I-54] | – | – | – | – | +++ (≥350) | < 3 | ≥ 150 | 3 to 10
C[C@]1(C(=O)NS(=O)(=O)c2cccc3ccccc23)CCc2c1ccc1c2OCO1 [Example I-20, (6S)-6-methyl-N-(naphthalene-1-sulfonyl)-7,8-dihydro-2H,6H-indeno[4,5-d][1,3]dioxole-6-carboxamide] | – | – | – | – | +++ (≥350) | 3 to 10 | ≥ 150 | 3 to 10
CCC1(C(=O)NS(=O)(=O)c2ccc(C3CCC3)c3ccccc23)CCc2c(C3CCC3)cccc21 (stereo not drawn) [II-82] | – | – | – | – | ++ (≥150 and <350) | 3 to 10 | < 50 | ≥ 10
COc1cccc2c1CCC2C(=O)NS(=O)(=O)c1ccc(CN(C)C)cc1 (stereo not drawn) [III-61] | – | – | – | – | + (<150) | ≥ 10 | < 50 | ≥ 10
COc1ccc(Br)c2c1C(C(=O)NS(=O)(=O)c1cccc3nc(C(C)C)ccc13)CC2 (stereo not drawn) [II-132] | – | – | – | – | +++ (≥350) | < 3 | ≥ 150 | < 3
Cc1ccc(S(=O)(=O)NC(=O)C2CCc3c(Cl)cccc32)nc1 (stereo not drawn) [III-19] | – | – | – | – | + (<150) | ≥ 10 | < 50 | ≥ 10
COc1ccc(C#N)c2c1C(C(=O)NS(=O)(=O)c1cccc3ccccc13)CC2 (stereo not drawn) [II-110] | – | – | – | – | +++ (≥350) | < 3 | ≥ 150 | 3 to 10
COc1cccc2c1CCC2C(=O)NS(=O)(=O)c1ccccc1C(F)(F)F (stereo not drawn) [II-37] | – | – | – | – | ++ (≥150 and <350) | 3 to 10 | < 50 | 3 to 10
COc1cccc2c1CC[C@@]2(C)C(=O)NS(=O)(=O)c1cccc2ccccc12 [Example I-6, (1R)-4-methoxy-1-methyl-N-(naphthalene-1-sulfonyl)-2,3-dihydro-1H-indene-1-carboxamide] | – | – | – | – | +++ (≥350) | 3 to 10 | ≥ 150 | 3 to 10
COc1ccc(Br)c2c1C(C(=O)NS(=O)(=O)c1cccc3nc(C)cn13)CC2 (stereo not drawn) [Example I-101, 4-bromo-7-methoxy-N-(2-methylimidazo[1,2-a]pyridine-5-sulfonyl)-2,3-dihydro-1H-indene-1-carboxamide] | – | – | – | – | +++ (≥350) | < 3 | ≥ 150 | < 3
CCc1ccccc1S(=O)(=O)NC(=O)C1CCc2c(OC)cccc21 (stereo not drawn) [II-24] | – | – | – | – | ++ (≥150 and <350) | 3 to 10 | < 50 | 3 to 10
COc1cccc2c1CCC2C(=O)NS(=O)(=O)c1cccc(C#N)c1 (stereo not drawn) [III-64] | – | – | – | – | + (<150) | ≥ 10 | < 50 | ≥ 10
COc1cccc2c1CCC2C(=O)NS(=O)(=O)c1ccc(NC(C)=O)cc1 (stereo not drawn) [III-41] | – | – | – | – | + (<150) | ≥ 10 | < 50 | ≥ 10
CCC1(C(=O)NS(=O)(=O)c2ccccc2COC)CCc2c(Cl)cccc21 (stereo not drawn) [II-102] | – | – | – | – | ++ (≥150 and <350) | < 3 | < 50 | 3 to 10
COc1cccc2c1CCC2C(=O)NS(=O)(=O)c1c(C)nn(CCCl)c1C (stereo not drawn) [III-51] | – | – | – | – | + (<150) | ≥ 10 | < 50 | ≥ 10
COc1cccc2c1CCCC2C(=O)NS(=O)(=O)c1ccccc1C (stereo not drawn) [II-8] | – | – | – | – | ++ (≥150 and <350) | 3 to 10 | 50 to 150 | 3 to 10
CCC1(C(=O)NS(=O)(=O)c2cc(C)ccc2Cl)CCc2c(Cl)cccc21 (stereo not drawn) [III-118] | ≥ 10 | + (<150) | ≥ 10 | < 50 | – | – | – | –
CCCS(=O)(=O)NC(=O)C1CCc2c(OC)cccc21 (stereo not drawn) [III-17] | – | – | – | – | + (<150) | ≥ 10 | < 50 | ≥ 10
COc1ccc(Br)c2c1C(C(=O)NS(=O)(=O)c1cccc3nccn13)CC2 (stereo not drawn) [Example I-78, 4-bromo-N-(imidazo[1,2-a]pyridine-5-sulfonyl)-7-methoxy-2,3-dihydro-1H-indene-1-carboxamide] | – | – | – | – | +++ (≥350) | < 3 | ≥ 150 | 3 to 10
COc1ccc(N2CCCC2)c2c1CCCC2C(=O)NS(=O)(=O)c1cccc2ccccc12 (stereo not drawn) [III-174] | ≥ 10 | + (<150) | ≥ 10 | < 50 | – | – | – | –
O=C(NS(=O)(=O)c1cccc2ccccc12)C1CCc2c(Br)cccc21 (stereo not drawn) [II-75] | – | – | – | – | +++ (≥350) | < 3 | ≥ 150 | 3 to 10
CCC1(C(=O)NS(=O)(=O)c2cccc3ccn(C)c23)CCc2c(Cl)cccc21 (stereo not drawn) [Example I-66, 4-chloro-1-ethyl-N-(1-methyl-1H-indole-7-sulfonyl)-2,3-dihydro-1H-indene-1-carboxamide] | – | – | – | – | +++ (≥350) | < 3 | ≥ 150 | < 3
COc1cccc2c1CCC2C(=O)NS(=O)(=O)c1ccc(C)cn1 (stereo not drawn) [III-13] | – | – | – | – | + (<150) | ≥ 10 | < 50 | ≥ 10
COc1ccc(C2CCC2)c2c1[C@@H](C(=O)NS(=O)(=O)c1cccc3ncccc13)CC2 [Example I-104, (1S)-4-cyclobutyl-7-methoxy-N-(quinoline-5-sulfonyl)-2,3-dihydro-1H-indene-1-carboxamide] | – | – | – | – | +++ (≥350) | < 3 | ≥ 150 | 3 to 10
